From PMC8419835

Test: Head-to-tail amide by intramolecular native chemical ligation: N,S-acyl shift of a C-terminal N-2-[thioethyl]glycine residue on TentaGel, transthioesterification with 50 equiv external thiol (MESNa or MPAA), then attack by N-terminal Cys and S,N-acyl shift, one pot
Conditions: the molecule shown is the open-chain precursor, aqueous: procedure B citrate pH 3 then phosphate pH 7.4 (DTT), procedure C 1 M TEAB pH 7.0 (MPAA, DTT), resin, 48.0 h, 2 steps

Compound: C[C@H](NC(=O)[C@H](CCCCN)NC(=O)[C@@H]1CCCN1C(=O)[C@@H](N)CS)C(=O)SCCS(=O)(=O)O
- ring closure, yield over several steps (12-membered ring): 24.1%

Compound: C[C@H](NC(=O)[C@H](CCCCN)NC(=O)[C@@H]1CCCN1C(=O)CNC(=O)[C@H](Cc1ccccc1)NC(=O)[C@@H](N)CS)C(=O)SCCS(=O)(=O)O
- ring closure, yield over several steps (18-membered ring): 25.8%

Compound: C[C@@H](O)[C@H](NC(=O)[C@H](Cc1ccccc1)NC(=O)[C@@H]1CCCN1C(=O)[C@H](CC(N)=O)NC(=O)[C@@H]1CCCN1C(=O)[C@H](Cc1ccccc1)NC(=O)[C@@H](N)CS)C(=O)Sc1ccc(CC(=O)O)cc1
- ring closure, yield over several steps (21-membered ring): 55%

Compound: H-Cys-Arg-Cys-Leu-Cys-Arg-Arg-Gly-Val-Cys-Arg-Cys-Ile-Cys-Thr-Arg-Gly-Phe-[N-2-(thioethyl)Gly]-linker-TentaGel (linker Ala-Ala-Met or bAla-Ala-bAla-Met, text inconsistent; side chains unprotected, all Cys as free SH; via MPAA thioester)
- ring closure, yield over several steps (54-membered ring): 39%

Compound: H-Cys-Thr-Lys-Ser-Ile-Pro-Pro-Ile-Cys-Phe-Pro-Asp-Gly-Arg-[N-2-(thioethyl)Gly]-linker-TentaGel (linker Ala-Ala-Met or bAla-Ala-bAla-Met, text inconsistent; side chains unprotected, both Cys as free SH; via MPAA thioester)
- ring closure, yield over several steps (42-membered ring): 40%
